By residual activity is commonly meant the signal under treatment as a percentage of the control signal.

Three molecules from the kinase profiling compilation of Christmann-Franck et al. (2016) can be followed below.

PRKCD (human), sequence (Q05655 whole entry, looked up): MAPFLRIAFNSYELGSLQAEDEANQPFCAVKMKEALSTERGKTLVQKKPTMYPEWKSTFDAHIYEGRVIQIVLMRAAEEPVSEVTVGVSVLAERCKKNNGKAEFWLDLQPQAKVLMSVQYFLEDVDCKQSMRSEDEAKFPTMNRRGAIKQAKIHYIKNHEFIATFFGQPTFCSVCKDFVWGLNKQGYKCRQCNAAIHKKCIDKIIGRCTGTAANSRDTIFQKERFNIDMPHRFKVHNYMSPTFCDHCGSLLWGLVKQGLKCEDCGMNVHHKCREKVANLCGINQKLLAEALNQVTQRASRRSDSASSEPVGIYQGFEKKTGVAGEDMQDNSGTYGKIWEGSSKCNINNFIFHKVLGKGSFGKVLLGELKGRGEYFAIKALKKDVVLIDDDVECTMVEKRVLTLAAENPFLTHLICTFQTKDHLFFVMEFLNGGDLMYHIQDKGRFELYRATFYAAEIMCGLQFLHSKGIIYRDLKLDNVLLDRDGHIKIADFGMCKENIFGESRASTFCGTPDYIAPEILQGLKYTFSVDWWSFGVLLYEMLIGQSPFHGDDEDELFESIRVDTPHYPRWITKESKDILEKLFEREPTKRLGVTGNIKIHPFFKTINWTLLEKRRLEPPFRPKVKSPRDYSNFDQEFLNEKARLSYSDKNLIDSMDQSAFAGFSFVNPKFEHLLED
JAK2 JH1 JH2 (human), sequence (O60674 whole entry, looked up): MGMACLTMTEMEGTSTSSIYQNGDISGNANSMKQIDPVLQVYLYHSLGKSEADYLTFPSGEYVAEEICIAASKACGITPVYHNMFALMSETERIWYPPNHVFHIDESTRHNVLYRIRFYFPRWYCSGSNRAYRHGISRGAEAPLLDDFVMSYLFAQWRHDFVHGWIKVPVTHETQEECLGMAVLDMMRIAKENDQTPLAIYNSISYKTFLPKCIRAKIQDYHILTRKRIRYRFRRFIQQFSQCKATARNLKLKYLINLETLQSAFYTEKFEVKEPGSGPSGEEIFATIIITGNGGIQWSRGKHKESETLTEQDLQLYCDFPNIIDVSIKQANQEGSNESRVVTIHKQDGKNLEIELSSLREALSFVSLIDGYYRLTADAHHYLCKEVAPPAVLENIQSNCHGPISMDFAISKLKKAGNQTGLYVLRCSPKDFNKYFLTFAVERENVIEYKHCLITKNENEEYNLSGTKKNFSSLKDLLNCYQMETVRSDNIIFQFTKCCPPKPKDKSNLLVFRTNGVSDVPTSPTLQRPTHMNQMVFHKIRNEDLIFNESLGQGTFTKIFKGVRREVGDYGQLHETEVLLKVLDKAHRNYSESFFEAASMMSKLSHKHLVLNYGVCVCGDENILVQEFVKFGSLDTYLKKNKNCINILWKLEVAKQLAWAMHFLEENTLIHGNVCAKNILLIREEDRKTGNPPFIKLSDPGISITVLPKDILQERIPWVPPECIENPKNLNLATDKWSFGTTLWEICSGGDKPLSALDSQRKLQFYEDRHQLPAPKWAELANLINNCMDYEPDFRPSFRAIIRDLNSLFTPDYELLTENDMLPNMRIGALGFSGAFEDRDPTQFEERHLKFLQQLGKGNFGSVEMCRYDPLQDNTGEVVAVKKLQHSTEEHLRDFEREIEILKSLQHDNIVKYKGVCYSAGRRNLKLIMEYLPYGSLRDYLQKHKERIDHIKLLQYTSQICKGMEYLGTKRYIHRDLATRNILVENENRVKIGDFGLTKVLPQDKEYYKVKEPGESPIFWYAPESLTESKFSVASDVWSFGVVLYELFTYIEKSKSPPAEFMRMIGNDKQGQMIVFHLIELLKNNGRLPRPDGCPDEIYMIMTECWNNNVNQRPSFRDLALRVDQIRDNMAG

The first assay deals with MAPK1 (human) (UniProt P28482). The experiment in a line: radiometric filter-binding kinase assay, Kinase HotSpot. The conditions noted are these: compound 0.5 µM; ATP 10 µM.
Consider `O=C1Nc2ccccc2/C1=C1\Nc2ccccc2\C1=N/O`, for which the residual activity stood at 96.6%.
On the same count and under the same terms, to `O=C(Nc1cccc(Nc2cc(Nc3cccc(C(F)(F)F)c3)ncn2)c1)C1CC1` belongs 101%.

In another assay the target is MKNK2 (human) (UniProt Q9HBH9). The assay is described as above. The conditions noted are these: compound 0.5 µM; ATP 10 µM.
`Cn1cnc2cc3c(Nc4cccc(Br)c4)ncnc3cc21`: the residual activity came to 32.2%.
On the same count and under the same terms, to `O=C1Nc2ccccc2/C1=C1\Nc2ccccc2\C1=N/O` belongs 82.1%; to `O=C(Nc1cccc(Nc2cc(Nc3cccc(C(F)(F)F)c3)ncn2)c1)C1CC1`, 83.8%.

A further assay concerns the target ALK (human) (UniProt Q9UM73). Described as above. The note with it: compound 0.5 µM; ATP 10 µM.
In the case of `Cn1cnc2cc3c(Nc4cccc(Br)c4)ncnc3cc21`, the residual activity was 92.4%.
Still for that read-out and setting: to `O=C1Nc2ccccc2/C1=C1\Nc2ccccc2\C1=N/O` belongs 76.5%.
The same measure, in the same setting: to `O=C(Nc1cccc(Nc2cc(Nc3cccc(C(F)(F)F)c3)ncn2)c1)C1CC1` belongs 112%.

The target in another assay is RPS6KA6 KD1 KD2 (human) (UniProt Q9UK32). The assay is described as above. The note with it: compound 0.5 µM; ATP 10 µM.
Consider `Cn1cnc2cc3c(Nc4cccc(Br)c4)ncnc3cc21`, for which the residual activity came out at 92.5%.
Still for that read-out and setting: for `O=C1Nc2ccccc2/C1=C1\Nc2ccccc2\C1=N/O` the value was 52.2%; for `O=C(Nc1cccc(Nc2cc(Nc3cccc(C(F)(F)F)c3)ncn2)c1)C1CC1`, 96.6%.

For a further assay, the target named is EPHA7 (human) (UniProt Q15375). The assay is described as above. The conditions noted are these: compound 0.5 µM; ATP 10 µM.
As for `Cn1cnc2cc3c(Nc4cccc(Br)c4)ncnc3cc21`, the residual activity is 72%.
Consider `O=C1Nc2ccccc2/C1=C1\Nc2ccccc2\C1=N/O`, for which the residual activity was determined as 89.3%.
On the same count and under the same terms, to `O=C(Nc1cccc(Nc2cc(Nc3cccc(C(F)(F)F)c3)ncn2)c1)C1CC1` belongs 101%.

The target in another assay is STK33 (human) (UniProt Q9BYT3). The description is as above. The note with it: compound 0.5 µM; ATP 10 µM.
Take `Cn1cnc2cc3c(Nc4cccc(Br)c4)ncnc3cc21`: the residual activity is 99.3%.
The same measure, in the same setting: to `O=C1Nc2ccccc2/C1=C1\Nc2ccccc2\C1=N/O` belongs 44.1%; to `O=C(Nc1cccc(Nc2cc(Nc3cccc(C(F)(F)F)c3)ncn2)c1)C1CC1`, 105%.

For another assay, the target named is PAK4 (human) (UniProt O96013). Described as above. The conditions noted are these: compound 0.5 µM; ATP 10 µM.
As for `Cn1cnc2cc3c(Nc4cccc(Br)c4)ncnc3cc21`, the residual activity came to 105%.
Same read-out and setting: for `O=C1Nc2ccccc2/C1=C1\Nc2ccccc2\C1=N/O` the value was 77.1%; for `O=C(Nc1cccc(Nc2cc(Nc3cccc(C(F)(F)F)c3)ncn2)c1)C1CC1`, 103%.

The next assay concerns the target JAK2 JH1 JH2 (human) (UniProt O60674). The assay is described as above. The note with it: compound 0.5 µM; ATP 10 µM.
Consider `Cn1cnc2cc3c(Nc4cccc(Br)c4)ncnc3cc21`, for which the residual activity was 103%.
The same measure, in the same setting: for `O=C1Nc2ccccc2/C1=C1\Nc2ccccc2\C1=N/O` the value was 84.6%; for `O=C(Nc1cccc(Nc2cc(Nc3cccc(C(F)(F)F)c3)ncn2)c1)C1CC1`, 99.5%.

The target in another assay is DYRK3 (human) (UniProt O43781). The description is as above. The conditions noted are these: compound 0.5 µM; ATP 10 µM.
DYRK3 (human), sequence (O43781 whole entry, looked up): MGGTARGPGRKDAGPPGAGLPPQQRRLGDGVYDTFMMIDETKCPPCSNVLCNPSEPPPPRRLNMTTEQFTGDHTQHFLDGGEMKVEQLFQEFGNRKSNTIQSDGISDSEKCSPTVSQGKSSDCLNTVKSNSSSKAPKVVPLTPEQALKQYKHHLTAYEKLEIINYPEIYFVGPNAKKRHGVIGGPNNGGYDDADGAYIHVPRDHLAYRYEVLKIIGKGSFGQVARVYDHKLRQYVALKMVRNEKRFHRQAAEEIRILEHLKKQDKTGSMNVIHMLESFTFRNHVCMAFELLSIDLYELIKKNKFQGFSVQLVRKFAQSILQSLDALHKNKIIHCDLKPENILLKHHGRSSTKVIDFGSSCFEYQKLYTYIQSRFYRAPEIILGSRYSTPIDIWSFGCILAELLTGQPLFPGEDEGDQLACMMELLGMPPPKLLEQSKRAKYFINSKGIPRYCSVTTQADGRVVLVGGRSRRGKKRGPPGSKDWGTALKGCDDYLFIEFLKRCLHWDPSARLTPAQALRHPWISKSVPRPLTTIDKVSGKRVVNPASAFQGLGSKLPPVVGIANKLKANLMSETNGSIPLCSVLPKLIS
Regarding `Cn1cnc2cc3c(Nc4cccc(Br)c4)ncnc3cc21`, the residual activity is 102%.
The same measure, in the same setting: to `O=C1Nc2ccccc2/C1=C1\Nc2ccccc2\C1=N/O` belongs 106%.
The same measure, in the same setting: to `O=C(Nc1cccc(Nc2cc(Nc3cccc(C(F)(F)F)c3)ncn2)c1)C1CC1` belongs 101%.

The target in the next assay is MAPK13 (human) (UniProt O15264). Described as above. The note with it: compound 0.5 µM; ATP 10 µM.
MAPK13 (human), sequence (O15264 whole entry, looked up): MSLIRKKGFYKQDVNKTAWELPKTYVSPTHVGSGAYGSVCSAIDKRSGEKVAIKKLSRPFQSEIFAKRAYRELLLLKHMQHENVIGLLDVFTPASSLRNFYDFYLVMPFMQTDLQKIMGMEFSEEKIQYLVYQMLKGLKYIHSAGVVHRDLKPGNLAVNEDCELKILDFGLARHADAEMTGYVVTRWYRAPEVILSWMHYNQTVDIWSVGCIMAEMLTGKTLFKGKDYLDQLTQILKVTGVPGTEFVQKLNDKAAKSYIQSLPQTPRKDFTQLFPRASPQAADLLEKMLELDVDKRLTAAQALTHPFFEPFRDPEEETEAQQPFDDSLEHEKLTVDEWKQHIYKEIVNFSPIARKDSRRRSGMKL
`Cn1cnc2cc3c(Nc4cccc(Br)c4)ncnc3cc21`: the residual activity was 101%.
As for `O=C1Nc2ccccc2/C1=C1\Nc2ccccc2\C1=N/O`, the residual activity amounted to 105%.
For `O=C(Nc1cccc(Nc2cc(Nc3cccc(C(F)(F)F)c3)ncn2)c1)C1CC1`, the residual activity came out at 106%.

Another assay deals with ACVRL1 (human) (UniProt P37023). Described as above. The note with it: compound 0.5 µM; ATP 10 µM.
ACVRL1 (human), sequence (P37023 whole entry, looked up): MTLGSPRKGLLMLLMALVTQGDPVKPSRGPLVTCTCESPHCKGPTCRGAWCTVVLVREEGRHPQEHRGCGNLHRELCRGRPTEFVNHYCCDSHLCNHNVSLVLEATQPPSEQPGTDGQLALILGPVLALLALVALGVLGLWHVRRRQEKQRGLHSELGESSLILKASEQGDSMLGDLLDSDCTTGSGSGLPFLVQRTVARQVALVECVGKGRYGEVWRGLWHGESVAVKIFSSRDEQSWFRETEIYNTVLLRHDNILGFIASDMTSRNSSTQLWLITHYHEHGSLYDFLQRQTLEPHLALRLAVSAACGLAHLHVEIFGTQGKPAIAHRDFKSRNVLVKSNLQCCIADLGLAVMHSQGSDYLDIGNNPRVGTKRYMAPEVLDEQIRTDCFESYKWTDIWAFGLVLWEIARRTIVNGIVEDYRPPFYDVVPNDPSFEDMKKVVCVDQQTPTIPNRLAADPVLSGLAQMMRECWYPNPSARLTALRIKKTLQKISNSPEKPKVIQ
`Cn1cnc2cc3c(Nc4cccc(Br)c4)ncnc3cc21`: the residual activity came to 102%.
On the same count and under the same terms, to `O=C1Nc2ccccc2/C1=C1\Nc2ccccc2\C1=N/O` belongs 108%; to `O=C(Nc1cccc(Nc2cc(Nc3cccc(C(F)(F)F)c3)ncn2)c1)C1CC1`, 114%.

Another assay concerns the target IGF1R (human) (UniProt P08069). Described as above. The conditions noted are these: compound 0.5 µM; ATP 10 µM.
Regarding `Cn1cnc2cc3c(Nc4cccc(Br)c4)ncnc3cc21`, the residual activity was 102%.
Same read-out and setting: for `O=C1Nc2ccccc2/C1=C1\Nc2ccccc2\C1=N/O` the value was 80.2%; for `O=C(Nc1cccc(Nc2cc(Nc3cccc(C(F)(F)F)c3)ncn2)c1)C1CC1`, 105%.

A further assay addresses PRKCD (human) (UniProt Q05655). Described as above. The conditions noted are these: compound 0.5 µM; ATP 10 µM.
`Cn1cnc2cc3c(Nc4cccc(Br)c4)ncnc3cc21`: the residual activity amounted to 91.8%.
The same measure, in the same setting: to `O=C1Nc2ccccc2/C1=C1\Nc2ccccc2\C1=N/O` belongs 95%.
Still for that read-out and setting: for `O=C(Nc1cccc(Nc2cc(Nc3cccc(C(F)(F)F)c3)ncn2)c1)C1CC1` the value was 101%.

In the next assay the target is DDR2 (human) (UniProt Q16832). Described as above. The conditions noted are these: compound 0.5 µM; ATP 10 µM.
In the case of `Cn1cnc2cc3c(Nc4cccc(Br)c4)ncnc3cc21`, the residual activity was found to be 102%.
Still for that read-out and setting: for `O=C1Nc2ccccc2/C1=C1\Nc2ccccc2\C1=N/O` the value was 101%; for `O=C(Nc1cccc(Nc2cc(Nc3cccc(C(F)(F)F)c3)ncn2)c1)C1CC1`, 106%.

The target of the next assay is CLK1 (human) (UniProt P49759). The assay is described as above. The note with it: compound 0.5 µM; ATP 10 µM.
CLK1 (human), sequence (P49759 whole entry, looked up): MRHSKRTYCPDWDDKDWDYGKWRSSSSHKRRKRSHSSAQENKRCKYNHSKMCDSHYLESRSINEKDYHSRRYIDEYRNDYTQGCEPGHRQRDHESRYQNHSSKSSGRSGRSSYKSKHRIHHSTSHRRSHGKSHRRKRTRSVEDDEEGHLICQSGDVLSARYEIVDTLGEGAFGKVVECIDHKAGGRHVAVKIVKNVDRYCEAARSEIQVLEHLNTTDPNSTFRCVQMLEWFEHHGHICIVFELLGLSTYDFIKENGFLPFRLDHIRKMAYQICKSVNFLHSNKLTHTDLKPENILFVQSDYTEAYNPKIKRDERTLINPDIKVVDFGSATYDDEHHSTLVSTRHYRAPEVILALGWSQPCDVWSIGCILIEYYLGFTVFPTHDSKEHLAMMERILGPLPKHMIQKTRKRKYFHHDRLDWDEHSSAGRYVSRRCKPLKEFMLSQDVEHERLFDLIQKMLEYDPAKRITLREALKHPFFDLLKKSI
Take `Cn1cnc2cc3c(Nc4cccc(Br)c4)ncnc3cc21`: the residual activity was 102%.
Still for that read-out and setting: for `O=C1Nc2ccccc2/C1=C1\Nc2ccccc2\C1=N/O` the value was 90.9%.
Consider `O=C(Nc1cccc(Nc2cc(Nc3cccc(C(F)(F)F)c3)ncn2)c1)C1CC1`, for which the residual activity was 107%.

The target in another assay is TYK2 JH1 catalytic (human) (UniProt P29597). The description is as above. The conditions noted are these: compound 0.5 µM; ATP 10 µM.
With `Cn1cnc2cc3c(Nc4cccc(Br)c4)ncnc3cc21`, the residual activity is 112%.
With `O=C1Nc2ccccc2/C1=C1\Nc2ccccc2\C1=N/O`, the residual activity was 24.3%.
Regarding `O=C(Nc1cccc(Nc2cc(Nc3cccc(C(F)(F)F)c3)ncn2)c1)C1CC1`, the residual activity was found to be 102%.

The target in another assay is AKT1 (human) (UniProt P31749). The assay is described as above. The note with it: compound 0.5 µM; ATP 10 µM.
AKT1 (human), sequence (P31749 whole entry, looked up): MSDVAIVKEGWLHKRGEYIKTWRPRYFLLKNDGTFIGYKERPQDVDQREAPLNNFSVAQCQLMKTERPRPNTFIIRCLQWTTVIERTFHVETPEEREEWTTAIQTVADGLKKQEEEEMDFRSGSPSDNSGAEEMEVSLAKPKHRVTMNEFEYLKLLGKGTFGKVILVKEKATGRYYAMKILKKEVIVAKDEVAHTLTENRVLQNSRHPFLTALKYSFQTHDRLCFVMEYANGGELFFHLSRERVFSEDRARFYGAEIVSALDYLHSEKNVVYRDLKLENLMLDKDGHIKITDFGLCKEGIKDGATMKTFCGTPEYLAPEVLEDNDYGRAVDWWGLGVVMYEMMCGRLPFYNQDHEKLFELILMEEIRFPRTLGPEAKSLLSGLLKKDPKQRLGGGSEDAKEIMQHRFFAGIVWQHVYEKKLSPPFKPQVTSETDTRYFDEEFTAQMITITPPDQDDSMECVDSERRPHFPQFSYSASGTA
On to `Cn1cnc2cc3c(Nc4cccc(Br)c4)ncnc3cc21`, for which the residual activity amounted to 89.1%.
Still for that read-out and setting: for `O=C1Nc2ccccc2/C1=C1\Nc2ccccc2\C1=N/O` the value was 97.8%.
For the molecule `O=C(Nc1cccc(Nc2cc(Nc3cccc(C(F)(F)F)c3)ncn2)c1)C1CC1`, the residual activity turned out to be 102%.

In another assay the target is CDK1 CCNB1 (human) (UniProt P06493+P14635). The description is as above. The conditions noted are these: compound 0.5 µM; ATP 10 µM.
CDK1 CCNB1 (human), sequence (P06493 whole entry, looked up): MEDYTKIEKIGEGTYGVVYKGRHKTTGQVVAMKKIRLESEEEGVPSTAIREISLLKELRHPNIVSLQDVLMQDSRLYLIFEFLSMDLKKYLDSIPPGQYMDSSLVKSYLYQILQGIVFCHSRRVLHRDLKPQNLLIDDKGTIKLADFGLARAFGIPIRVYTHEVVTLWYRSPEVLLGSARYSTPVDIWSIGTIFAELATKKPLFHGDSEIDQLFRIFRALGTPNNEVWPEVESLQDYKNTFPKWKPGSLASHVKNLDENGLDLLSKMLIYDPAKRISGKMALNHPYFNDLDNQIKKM
CDK1 CCNB1 (human), sequence (P14635 whole entry, looked up): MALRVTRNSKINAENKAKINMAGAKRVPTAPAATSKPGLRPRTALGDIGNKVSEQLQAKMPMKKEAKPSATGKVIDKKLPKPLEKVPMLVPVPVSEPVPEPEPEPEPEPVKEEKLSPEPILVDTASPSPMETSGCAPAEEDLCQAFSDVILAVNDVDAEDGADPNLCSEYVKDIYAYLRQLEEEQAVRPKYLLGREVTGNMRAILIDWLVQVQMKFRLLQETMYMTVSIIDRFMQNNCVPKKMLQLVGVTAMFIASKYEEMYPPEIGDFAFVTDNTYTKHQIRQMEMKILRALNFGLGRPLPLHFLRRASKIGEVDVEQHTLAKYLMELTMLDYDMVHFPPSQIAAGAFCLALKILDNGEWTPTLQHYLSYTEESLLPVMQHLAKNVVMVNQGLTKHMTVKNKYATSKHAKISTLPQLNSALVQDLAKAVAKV
Consider `Cn1cnc2cc3c(Nc4cccc(Br)c4)ncnc3cc21`, for which the residual activity was 97.9%.
On to `O=C1Nc2ccccc2/C1=C1\Nc2ccccc2\C1=N/O`, for which the residual activity worked out at 68.7%.
As to `O=C(Nc1cccc(Nc2cc(Nc3cccc(C(F)(F)F)c3)ncn2)c1)C1CC1`, the residual activity is 96.4%.

For another assay, the target named is CAMK1 (human) (UniProt Q14012). The assay is described as above. The conditions noted are these: compound 0.5 µM; ATP 10 µM.
Regarding `Cn1cnc2cc3c(Nc4cccc(Br)c4)ncnc3cc21`, the residual activity worked out at 106%.
For the molecule `O=C1Nc2ccccc2/C1=C1\Nc2ccccc2\C1=N/O`, the residual activity worked out at 83.7%.
On the same count and under the same terms, to `O=C(Nc1cccc(Nc2cc(Nc3cccc(C(F)(F)F)c3)ncn2)c1)C1CC1` belongs 108%.

Another assay concerns the target DYRK1B (human) (UniProt Q9Y463). Described as above. The conditions noted are these: compound 0.5 µM; ATP 10 µM.
For `Cn1cnc2cc3c(Nc4cccc(Br)c4)ncnc3cc21`, the residual activity was 98.1%.
Still for that read-out and setting: to `O=C1Nc2ccccc2/C1=C1\Nc2ccccc2\C1=N/O` belongs 84.7%; to `O=C(Nc1cccc(Nc2cc(Nc3cccc(C(F)(F)F)c3)ncn2)c1)C1CC1`, 105%.

Another assay deals with RPS6KA5 KD2 (human) (UniProt O75582). Described as above. The note with it: compound 0.5 µM; ATP 10 µM.
For `Cn1cnc2cc3c(Nc4cccc(Br)c4)ncnc3cc21`, the residual activity came to 93.5%.
As for `O=C1Nc2ccccc2/C1=C1\Nc2ccccc2\C1=N/O`, the residual activity came to 67%.
On the same count and under the same terms, for `O=C(Nc1cccc(Nc2cc(Nc3cccc(C(F)(F)F)c3)ncn2)c1)C1CC1` the value was 103%.
